The source of these data is US20260250277A1, “HYDRAZINO GROUP-CONTAINING COMPOUND” (CHIA TAI TIANQING PHARMACEUTICAL GROUP CO., LTD., priority 2022, published 2026).

Data set [1] addresses ATR/ATPIP (ATR-interacting protein) kinase (Homo sapiens, UniProt Q13535). The data set can be described thus: Inhibitory activity against ATR kinase (p53 substrate, HTRF). Type of data set: biochemical. The method, then: (§1) ATR/ATPIP (ATR-interacting protein) kinase solution (concentration: 50 ng/μL) was added to assay wells at 6 μL/well, and different compounds dissolved in DMSO were added to the assay wells separately using a nanoliter pipettor, such that the final concentrations of the compounds were 10000 nM to 2.44 nM. In this experiment, the wells were set in duplicate, and a control well was set. After incubation of the above system for 30 min at room temperature, ATP (5 μM) was mixed with p53 substrate (50 nM) at a ratio of 1:1, and the mixture was added at 4 μL/well. The resulting mixture was left to react at room temperature for 2 h, and then 5 μL of EDTA was added to terminate the reaction, followed by addition of 5 μL of detection antibodies, Mab Anti-phospho p53 and Mab Anti GST-d2 (manufacturer: perkinelmer). The mixture was incubated at room temperature for 1 h. The plate was read using a PerkinElmer Envision multifunctional microplate reader (excitation: 320 nm, emission: 620 nm/665 nm), and IC50 was calculated by four-parameter fitting.
(In general: Time-resolved FRET reads energy transfer from a long-lived donor to a nearby acceptor.)

Data set [2] concerns the target DNA-PK (DNA-dependent protein kinase) (Homo sapiens, UniProt P78527). The data set can be described thus: Inhibitory activity against DNA-PK (p53 substrate, HTRF). Type of data set: biochemical. How it is done:
as §1, with “DNA-PK kinase” for “ATR/ATPIP (ATR-interacting protein) kinase”, “(concentration: 0.15” for “(concentration: 50”, “ATP (100” for “ATP (5”

Data set [3] has as its target ATM kinase (Homo sapiens, UniProt Q13315). Description: Inhibitory activity against ATM kinase (p53 substrate, HTRF). Type of data set: biochemical. How it is done:
as §1, with “ATM kinase” for “ATR/ATPIP (ATR-interacting protein) kinase”, “(concentration: 25” for “(concentration: 50”, “ATP (100” for “ATP (5”

The nature of data set [4]: In vivo pharmacokinetics (Table 4). The note with it: for AUC(0-inf) / AUC(0-t) / half-life / MRT last / Vd / Cmax / Tmax: plasma; for MRT last: read-out: MRT(0-t); for Vd: read-out: Vz.
The subject of data set [5] is CHK2 phosphorylation of NCI-H2228 cells. The data set can be described thus: Inhibitory activity against CHK2 phosphorylation of NCI-H2228 cells (p-CHK2 Thr68 AlphaLISA). Type of data set: cell-based. The settings on record: Homo sapiens. The method, then:
NCI-H2228 cells in a good growth state were collected, added to a centrifuge tube, adjusted to a cell density of 1.25×10^6 cells/mL, and seeded in a 384-well plate (8 μL/well). The cells were equilibrated in a cell incubator for 1.5 h, and then compounds were added using a nanoliter pipettor, such that the final concentrations of the compounds were 200 nM to 0.049 nM. In this experiment, the wells were set in duplicate, and a control well was set. After the mixture was further cultured for 1 h in the cell incubator, an assay was performed using a p-CHK2 (Thr68) assay kit (manufacturer: perkinelmer) and the Envision microplate reader AlphaLISA program. A four-parameter analysis was performed, a dose-response curve was fit, and IC50 was calculated.

As usually defined, the IC50 is the midpoint of a concentration-inhibition curve. A high value points to a need for much substance. As usually defined, the AUC(0-inf) is total exposure, with the tail of the curve extrapolated. A low value points to low exposure. One may read the AUC(0-t) as the area under the concentration-time curve up to a stated or last time point. Low values mean low exposure, high ones high exposure. In general, half-life refers to the time needed for the level to fall by half in the phase considered. Higher therefore signals slow decline. Usually Cmax stands for the peak of the concentration-time curve. One may read the Tmax as the time from dosing to the highest level.

Read-outs that look alike come from different tables or passages of the source. Bounds are passed on as bounds.

ATM kinase, sequence (Q13315 whole entry): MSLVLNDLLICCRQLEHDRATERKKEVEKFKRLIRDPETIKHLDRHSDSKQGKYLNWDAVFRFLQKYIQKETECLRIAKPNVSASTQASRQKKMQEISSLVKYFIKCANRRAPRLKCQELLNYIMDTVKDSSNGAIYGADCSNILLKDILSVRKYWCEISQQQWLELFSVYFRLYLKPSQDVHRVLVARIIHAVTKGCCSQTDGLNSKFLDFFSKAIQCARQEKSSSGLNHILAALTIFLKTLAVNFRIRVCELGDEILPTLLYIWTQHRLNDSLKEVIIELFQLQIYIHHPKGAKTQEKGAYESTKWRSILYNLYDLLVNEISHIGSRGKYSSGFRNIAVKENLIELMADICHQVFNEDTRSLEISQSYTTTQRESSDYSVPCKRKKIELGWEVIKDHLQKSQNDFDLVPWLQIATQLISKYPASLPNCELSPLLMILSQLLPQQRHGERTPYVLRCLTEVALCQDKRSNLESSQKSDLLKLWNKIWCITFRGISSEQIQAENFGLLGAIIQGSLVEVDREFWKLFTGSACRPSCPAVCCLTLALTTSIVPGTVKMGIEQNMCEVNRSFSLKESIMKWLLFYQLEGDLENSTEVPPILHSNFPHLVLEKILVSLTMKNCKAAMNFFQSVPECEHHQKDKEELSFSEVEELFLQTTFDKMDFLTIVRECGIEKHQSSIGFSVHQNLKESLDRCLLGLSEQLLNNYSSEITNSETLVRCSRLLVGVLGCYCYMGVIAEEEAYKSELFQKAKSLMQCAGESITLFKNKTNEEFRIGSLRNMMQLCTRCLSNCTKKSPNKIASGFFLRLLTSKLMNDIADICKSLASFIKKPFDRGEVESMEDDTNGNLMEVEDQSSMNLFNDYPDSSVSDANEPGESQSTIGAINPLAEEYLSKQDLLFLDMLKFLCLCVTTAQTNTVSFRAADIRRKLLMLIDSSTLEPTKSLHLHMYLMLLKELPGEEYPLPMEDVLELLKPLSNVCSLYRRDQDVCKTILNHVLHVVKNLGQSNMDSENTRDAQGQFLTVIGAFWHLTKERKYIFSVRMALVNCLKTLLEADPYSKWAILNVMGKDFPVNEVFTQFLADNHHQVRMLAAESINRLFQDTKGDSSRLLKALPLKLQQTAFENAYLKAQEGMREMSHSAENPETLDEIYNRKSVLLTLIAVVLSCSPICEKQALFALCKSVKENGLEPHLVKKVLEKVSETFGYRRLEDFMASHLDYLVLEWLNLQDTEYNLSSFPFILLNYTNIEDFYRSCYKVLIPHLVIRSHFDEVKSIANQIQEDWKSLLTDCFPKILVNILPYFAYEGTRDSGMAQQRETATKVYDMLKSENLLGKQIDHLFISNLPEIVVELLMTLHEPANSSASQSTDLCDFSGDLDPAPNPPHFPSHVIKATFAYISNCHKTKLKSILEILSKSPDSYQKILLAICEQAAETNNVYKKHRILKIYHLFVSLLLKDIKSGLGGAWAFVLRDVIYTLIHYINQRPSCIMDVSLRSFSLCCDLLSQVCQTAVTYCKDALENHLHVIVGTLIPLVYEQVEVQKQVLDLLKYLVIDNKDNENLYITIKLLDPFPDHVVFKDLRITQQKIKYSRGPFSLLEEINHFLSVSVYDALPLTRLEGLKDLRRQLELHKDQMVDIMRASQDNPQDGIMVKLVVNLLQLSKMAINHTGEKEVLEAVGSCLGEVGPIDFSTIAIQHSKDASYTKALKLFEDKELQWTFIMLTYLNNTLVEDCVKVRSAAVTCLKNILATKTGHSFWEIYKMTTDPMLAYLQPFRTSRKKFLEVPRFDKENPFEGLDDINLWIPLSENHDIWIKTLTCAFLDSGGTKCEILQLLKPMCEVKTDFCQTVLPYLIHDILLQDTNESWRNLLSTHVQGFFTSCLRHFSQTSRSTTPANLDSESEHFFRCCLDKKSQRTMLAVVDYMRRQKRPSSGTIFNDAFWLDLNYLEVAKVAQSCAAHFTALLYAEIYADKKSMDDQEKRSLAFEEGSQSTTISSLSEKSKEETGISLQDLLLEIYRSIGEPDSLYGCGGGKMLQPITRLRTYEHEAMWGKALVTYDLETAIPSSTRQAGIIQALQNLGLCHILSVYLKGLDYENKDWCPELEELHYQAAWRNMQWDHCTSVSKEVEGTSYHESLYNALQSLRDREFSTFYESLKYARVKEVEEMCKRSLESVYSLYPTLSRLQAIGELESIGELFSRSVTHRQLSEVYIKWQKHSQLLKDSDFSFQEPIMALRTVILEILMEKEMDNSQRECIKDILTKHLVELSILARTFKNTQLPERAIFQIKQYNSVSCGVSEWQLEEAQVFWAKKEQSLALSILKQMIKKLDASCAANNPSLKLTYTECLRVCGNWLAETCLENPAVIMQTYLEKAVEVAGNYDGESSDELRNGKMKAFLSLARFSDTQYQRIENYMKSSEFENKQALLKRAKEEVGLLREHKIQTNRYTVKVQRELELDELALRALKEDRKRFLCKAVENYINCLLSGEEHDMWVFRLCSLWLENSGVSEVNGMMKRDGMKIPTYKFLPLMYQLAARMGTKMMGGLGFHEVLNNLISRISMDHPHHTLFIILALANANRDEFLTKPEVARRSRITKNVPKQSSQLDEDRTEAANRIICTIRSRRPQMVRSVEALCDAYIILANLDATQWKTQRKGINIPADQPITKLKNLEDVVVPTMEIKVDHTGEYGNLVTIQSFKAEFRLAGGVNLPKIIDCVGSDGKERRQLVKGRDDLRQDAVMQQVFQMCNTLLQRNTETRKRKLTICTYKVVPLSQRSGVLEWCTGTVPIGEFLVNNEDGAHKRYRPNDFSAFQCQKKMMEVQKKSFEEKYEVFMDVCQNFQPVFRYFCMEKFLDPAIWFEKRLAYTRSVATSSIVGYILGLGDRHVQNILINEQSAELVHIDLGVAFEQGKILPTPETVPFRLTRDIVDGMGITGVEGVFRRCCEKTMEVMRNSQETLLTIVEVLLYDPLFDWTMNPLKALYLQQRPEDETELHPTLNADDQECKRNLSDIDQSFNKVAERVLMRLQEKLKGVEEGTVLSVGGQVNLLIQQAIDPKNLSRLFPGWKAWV

In the case of `CC(C)n1c(=O)n(N)c2cnc3cc(F)c(-c4ccc(OCCCN5CCCCC5)nc4)cc3c21` [Example 2], the IC50 in data set [1] worked out at 821 nM. The IC50 in data set [2] was greater than 1000 nM. This compound also registered an IC50 in data set [3] of less than 50 nM. In addition, in data set [4] (iv, 1 mg/kg), the AUC(0-inf) came to 539 ng·h/mL, the AUC(0-t) stood at 521 ng·h/mL, the half-life was 1.7 h and the MRT last was 2.11 h. Also, in data set [4] (iv, 1 mg/kg), the Vd came to 4.55 L/kg. Besides, in data set [4] (po, IG, 10 mg/kg), the AUC(0-inf) turned out to be 4270 ng·h/mL, the AUC(0-t) came out at 4150 ng·h/mL, the Cmax was determined as 521 ng/mL and the Tmax was 0.5 h. In data set [4] (po, IG, 10 mg/kg), the half-life was 4.59 h and the MRT last amounted to 6.1 h. This compound also registered an IC50 in data set [5] of less than 50 nM.
`CC(C)n1c(=O)n(N)c2cnc3cc(F)c(-c4ccc(OCCCN5CCCC5)nc4)cc3c21` [Example 3] yielded an IC50 in data set [1] greater than 1000 nM. In addition, the IC50 in data set [2] was greater than 1000 nM. This compound also gave an IC50 in data set [3] of less than 50 nM. Further, in data set [4] (iv, 1 mg/kg), the area under the curve AUC(0-inf) stood at 460 ng·h/mL, the AUC(0-t) came out at 445 ng·h/mL, the half-life was 1.74 h and the MRT last was determined as 2.1 h. In data set [4] (iv, 1 mg/kg), the Vd was found to be 5.45 L/kg. Further, in data set [4] (po, IG, 10 mg/kg), the AUC(0-inf) amounted to 4330 ng·h/mL, the AUC(0-t) was found to be 4250 ng·h/mL, the highest level (Cmax) was 495 ng/mL and the Tmax was 1 h. In data set [4] (po, IG, 10 mg/kg), the half-life is 4.01 h and the MRT last turned out to be 6.05 h. In data set [5], this compound registered an IC50 of less than 50 nM.
On to `Nn1c(=O)n(C2CCOCC2)c2c3cc(-c4ccc(OCCCN5CCCC5)nc4)c(F)cc3ncc21` [Example 5], for which the concentration for half-maximal inhibition (IC50) in data set [1] was greater than 1000 nM; in data set [2], greater than 1000 nM; in data set [3], less than 50 nM; in data set [5] it was less than 50 nM.
As to `CNn1c(=O)n(C(C)C)c2c3cc(-c4ccc(OCCCN5CCCCC5)nc4)c(F)cc3ncc21` [Example 7], the IC50 is greater than 1000 nM in data set [1], greater than 1000 nM in data set [2], less than 50 nM in data set [3] and less than 50 nM in data set [5].
For `COc1cc2ncc3c(c2cc1-c1ccc(OCCCN2CCCC2)nc1)n(C1CC1)c(=O)n3N` [Example 11], the IC50 in data set [1] was greater than 1000 nM; in data set [2], greater than 1000 nM; in data set [3] it was less than 50 nM; in data set [5] it was less than 50 nM.
With `COC1CCC(n2c(=O)n(N)c3cnc4cc(F)c(-c5ccc(OCCCN6CCCC6)nc5)cc4c32)C1` (centres unmarked) [Example 13], the IC50 was greater than 1000 nM in data set [1], greater than 1000 nM in data set [2], less than 50 nM in data set [3] and less than 50 nM in data set [5].
As for `COC1CCC(n2c(=O)n(N)c3cnc4cc(F)c(-c5ccc(OCCCN(C)C)nc5)cc4c32)C1` (centres unmarked) [Example 14], the IC50 in data set [1] was greater than 1000 nM; in data set [2] it was greater than 1000 nM; in data set [3] it was less than 50 nM; in data set [5], less than 50 nM.
Turning to `COc1cc2ncc3c(c2cc1-c1ccc(OCCCN2CCCC2)nc1)n(C(C)C)c(=O)n3N` [Example 17], the IC50 in data set [1] was greater than 1000 nM; in data set [2] it was greater than 1000 nM; in data set [3] it was less than 50 nM; in data set [5], less than 50 nM.
In the case of `Nn1c(=O)n(C2CC2)c2c3cc(-c4ccc(OCCCN5CCCCC5)nc4)c(F)cc3ncc21` [Example 18], the 50% inhibitory concentration (IC50) in data set [1] was greater than 1000 nM. In data set [2], the IC50 was greater than 1000 nM. In data set [3], this compound gave an IC50 of less than 50 nM. For the same compound, in data set [4] (iv, 1 mg/kg), the AUC(0-inf) was found to be 624 ng·h/mL, the AUC(0-t) is 587 ng·h/mL, the half-life is 2.17 h and the MRT last stood at 1.89 h. Further, in data set [4] (iv, 1 mg/kg), the Vd turned out to be 3.9 L/kg. Moreover, in data set [4] (po, IG, 10 mg/kg), the AUC(0-inf) amounted to 4500 ng·h/mL, the exposure AUC(0-t) came out at 4460 ng·h/mL, the highest level (Cmax) was 506 ng/mL and the time to peak (Tmax) worked out at 4 h. In data set [4] (po, IG, 10 mg/kg), the half-life was 3.51 h and the MRT last is 4.99 h. This compound also yielded a half-inhibitory concentration (IC50) in data set [5] of less than 50 nM.
For the compound `COC1CC(n2c(=O)n(N)c3cnc4cc(F)c(-c5ccc(OCCCN6CCCCC6)nc5)cc4c32)C1` (centres unmarked) [Example 20], the IC50 is greater than 1000 nM in data set [1], greater than 1000 nM in data set [2], less than 50 nM in data set [3] and less than 50 nM in data set [5].
In the case of `COC1CC(n2c(=O)n(N)c3cnc4cc(F)c(-c5ccc(OCCCN(C)C)nc5)cc4c32)C1` (centres unmarked) [Example 21], the IC50 is greater than 1000 nM in data set [1], greater than 1000 nM in data set [2], less than 50 nM in data set [3] and less than 50 nM in data set [5].
Take `CC(C)n1c(=O)n(N)c2cnc3cc(F)c(-c4ccc(OCCCN5CCC(CF)C5)nc4)cc3c21` (centres unmarked) [Example 25]: the IC50 in data set [2] was greater than 1000 nM; in data set [3], less than 50 nM; in data set [5], less than 50 nM.
With `CC(C)n1c(=O)n(N)c2cnc3cc(F)c(-c4ccc(OCCCN5CCC(F)(F)C5)nc4)cc3c21` [Example 26], the IC50 is greater than 1000 nM in data set [2], less than 50 nM in data set [3] and less than 50 nM in data set [5].
The compound `CC(C)n1c(=O)n(N)c2cnc3cc(F)c(-c4ccc(OCCCN5C6CCC5CC6)nc4)cc3c21` [Example 27] registered an IC50 in data set [2] greater than 1000 nM. Besides, in data set [3], the IC50 is less than 50 nM. The “Absolute F” value in data set [4] (IG 10 mg/kg vs IV 1 mg/kg) is 115.39%. This compound also gave a CLz in data set [4] (IV, 1 mg/kg) of 59.7 mL/min/kg. For the same compound, in data set [4] (iv, 1 mg/kg), the AUC(0-inf) stood at 280 ng·h/mL, the AUC(0-t) stood at 271 ng·h/mL, the half-life is 1.87 h and the MRT last is 1.43 h. Further, the Vd in data set [4] (iv, 1 mg/kg) is 6.11 L/kg. Besides, in data set [4] (po, IG, 10 mg/kg), the area under the curve AUC(0-inf) was 3190 ng·h/mL, the AUC(0-t) worked out at 3130 ng·h/mL, the Cmax worked out at 342 ng/mL and the time of peak concentration (Tmax) came out at 2 h. Also, in data set [4] (po, IG, 10 mg/kg), the half-life was 4.12 h and the MRT last came out at 5.7 h. The IC50 in data set [5] is less than 50 nM.
Take `CC(C)n1c(=O)n(N)c2cnc3cc(F)c(-c4ccc(OCCCN5CC(CF)C5)nc4)cc3c21` [Example 28]: the IC50 in data set [2] was greater than 1000 nM. The same compound displayed a concentration for half-maximal inhibition (IC50) in data set [3] of less than 50 nM. In addition, in data set [4] (iv, 1 mg/kg), the area under the curve AUC(0-inf) stood at 2240 ng·h/mL, the AUC(0-t) turned out to be 2230 ng·h/mL, the half-life was 3.1 h and the MRT last amounted to 3.24 h. For the same compound, the Vd in data set [4] (iv, 1 mg/kg) amounted to 1.5 L/kg. Besides, in data set [4] (po, IG, 10 mg/kg), the AUC(0-inf) turned out to be 17300 ng·h/mL, the AUC(0-t) is 17200 ng·h/mL, the Cmax was 1630 ng/mL and the Tmax amounted to 4 h. In addition, in data set [4] (po, IG, 10 mg/kg), the half-life is 3.04 h and the MRT last was found to be 5.56 h. This compound gave an IC50 in data set [5] of less than 50 nM.
For `CC(C)n1c(=O)n(N)c2cnc3cc(F)c(-c4ccc(OCCCN5CC6(CCC6)C5)nc4)cc3c21` [Example 29], in data set [2], the IC50 is greater than 1000 nM. Further, the half-inhibitory concentration (IC50) in data set [3] was less than 50 nM. In data set [4] (iv, 1 mg/kg), the AUC(0-inf) came out at 3160 ng·h/mL, the AUC(0-t) is 3140 ng·h/mL, the half-life was 3.22 h and the MRT last came to 3.29 h. In addition, the Vd in data set [4] (iv, 1 mg/kg) was 1.09 L/kg. In data set [4] (po, IG, 10 mg/kg), the AUC(0-inf) amounted to 27300 ng·h/mL, the AUC(0-t) is 27000 ng·h/mL, the Cmax was found to be 2300 ng/mL and the time to peak (Tmax) turned out to be 4 h. For the same compound, in data set [4] (po, IG, 10 mg/kg), the half-life was 3.51 h and the MRT last came out at 5.99 h. Further, the IC50 in data set [5] is less than 50 nM.
For the compound `COc1cc2ncc3c(c2cc1-c1ccc(OCCCN2CCCC2)nc1)n(-c1c(F)cncc1OC)c(=O)n3N` [Example 31], the concentration for half-maximal inhibition (IC50) was 8720 nM in data set [1], greater than 10000 nM in data set [2], less than 50 nM in data set [3] and less than 50 nM in data set [5].
